Source: ChEMBL document CHEMBL1201862, “PubChem BioAssay data set” (2004)
Calls of active or inactive are those of the source. Rule as the data show it: actives have a measured IC50 and inactives only a lower limit.

Molecular target: Envelope glycoprotein gp160 (Human immunodeficiency virus 1, UniProt Q6QLK5)
Experiment: cell-free HIV fusion peptide-binding blockers – biochemical, uHTS, fluorescence dequenching, […] (AID 1986)

Sequence of Envelope glycoprotein gp160 (Q6QLK5 whole entry, the tested form may be a part): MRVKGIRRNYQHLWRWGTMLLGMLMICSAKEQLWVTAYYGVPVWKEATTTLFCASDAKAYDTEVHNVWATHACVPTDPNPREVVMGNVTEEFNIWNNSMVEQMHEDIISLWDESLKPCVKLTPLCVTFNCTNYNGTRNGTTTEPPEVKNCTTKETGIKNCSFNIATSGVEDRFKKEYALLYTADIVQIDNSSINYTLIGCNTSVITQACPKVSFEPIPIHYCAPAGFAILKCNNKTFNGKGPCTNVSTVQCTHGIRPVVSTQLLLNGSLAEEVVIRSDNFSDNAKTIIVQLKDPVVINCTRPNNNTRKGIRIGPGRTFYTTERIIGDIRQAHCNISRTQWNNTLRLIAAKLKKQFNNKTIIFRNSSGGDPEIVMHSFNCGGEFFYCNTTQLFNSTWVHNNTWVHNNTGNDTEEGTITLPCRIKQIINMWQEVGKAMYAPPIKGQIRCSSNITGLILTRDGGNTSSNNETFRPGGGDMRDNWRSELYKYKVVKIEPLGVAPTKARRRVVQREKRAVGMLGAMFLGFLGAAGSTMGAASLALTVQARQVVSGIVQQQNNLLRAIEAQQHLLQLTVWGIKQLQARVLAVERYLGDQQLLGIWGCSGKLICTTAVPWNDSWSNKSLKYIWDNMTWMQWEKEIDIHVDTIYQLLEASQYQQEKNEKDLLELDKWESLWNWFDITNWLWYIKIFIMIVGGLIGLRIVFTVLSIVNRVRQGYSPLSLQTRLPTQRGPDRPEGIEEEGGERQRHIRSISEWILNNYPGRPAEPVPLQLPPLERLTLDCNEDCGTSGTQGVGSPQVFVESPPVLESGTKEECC

Row | Structure (SMILES) | IC50
1 | O=C(Nc1cc(C(=O)Nc2ccccc2C(=O)O)cc(C(=O)Nc2ccccc2C(=O)O)c1)c1ccccc1 | 6.36 µM (active)
2 | COc1ccc(C(=O)Nc2ccc(/C(C)=N/NC(=O)c3ccncc3)cc2)cc1 | 15 µM (active)
